Patent publication US20230233569A1 (Revolution Medicines, Inc., priority 2020, published 2023)

Legend:
[1] = test system: AsPC-1 (K-Ras G12D); test: Potency assay: pERK; format: cell-based; conditions: Homo sapiens, ASPC1, read-out: pERK EC50
[2] = test system: AsPC-1 (K-Ras G12D); test: CellTiter-Glo cell viability assay; format: cell-based; conditions: Homo sapiens, ASPC1, 120 h, read-out: AsPC-1 Cell Viability assay data IC50, K-Ras G12D, 5-day treatment
How it was run: (§1)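 Compounds dispensed directly onto seeded AsPC-1 (K-Ras G12D) or NCI-H358 (K-Ras G12C) cells; CellTiter-Glo luminescence read on day 5 after ~30 min equilibration to room temperature. Signal normalized to DMSO average (%) and fit by four-parameter logistic.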

[3] = test system: NCI-H358 (K-Ras G12C); test: CellTiter-Glo cell viability assay; format: cell-based; conditions: Homo sapiens, NCI-H358, 120 h, read-out: H358 Cell Viability assay data IC50, K-Ras G12C, 5-day treatment
How it was run: as §1

[4] = biological target: KRAS G12D (Homo sapiens, UniProt P01116+P62937, G12D); test: Ras-Raf disruption / FRET / MOA assay (BRAF RBD); format: biochemical; conditions: KRAS G12D FRET data IC50, Ras-Raf disruption, with Cyclophilin A
Sequence of KRAS G12D (P01116 1-169 isoform P01116-2 G12D limits assumed): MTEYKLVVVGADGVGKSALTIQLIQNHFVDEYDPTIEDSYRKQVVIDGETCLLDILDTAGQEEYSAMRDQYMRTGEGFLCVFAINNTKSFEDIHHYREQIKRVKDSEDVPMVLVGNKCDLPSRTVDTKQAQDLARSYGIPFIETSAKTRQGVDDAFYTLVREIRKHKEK
Sequence of KRAS G12D (P62937 whole entry): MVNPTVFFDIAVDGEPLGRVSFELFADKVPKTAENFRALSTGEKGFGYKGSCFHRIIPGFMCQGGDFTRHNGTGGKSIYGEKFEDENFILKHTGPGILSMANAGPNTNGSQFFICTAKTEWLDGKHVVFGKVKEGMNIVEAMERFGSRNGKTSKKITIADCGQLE
How it was run: (§2)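 TR-FRET in 25 mM HEPES pH 7.3, 100 mM NaCl, 5 mM MgCl2, 0.1% BSA, 0.002% Tween20 with 25 μM Cyclophilin A, 12.5 nM His6-Ras-GMPPNP, 50 nM GST-BRAF RBD; compound 10-point 3-fold series from 30 μM. After 3 h at 25 °C, Eu anti-His/APC anti-GST added for 1.5 h; IC50 from ratio decrease versus DMSO.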

[5] = biological target: KRAS G12S (Homo sapiens, UniProt P01116+P62937, G12S); test: Ras-Raf disruption / FRET / MOA assay (BRAF RBD); format: biochemical; conditions: KRAS G12S FRET data IC50, Ras-Raf disruption, with Cyclophilin A
Sequence of KRAS G12S (P01116 1-169 isoform P01116-2 G12S limits assumed): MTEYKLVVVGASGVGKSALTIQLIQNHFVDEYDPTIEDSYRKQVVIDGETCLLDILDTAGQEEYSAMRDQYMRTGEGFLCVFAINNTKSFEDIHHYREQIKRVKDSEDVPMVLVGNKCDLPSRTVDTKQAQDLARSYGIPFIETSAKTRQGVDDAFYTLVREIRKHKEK
Sequence of KRAS G12S (P62937 whole entry): as the sequence (P62937 whole entry) above
How it was run: as §2

[6] = biological target: KRAS G12V (Homo sapiens, UniProt P01116+P62937, G12V); test: Ras-Raf disruption / FRET / MOA assay (BRAF RBD); format: biochemical; conditions: KRAS G12V FRET data IC50, Ras-Raf disruption, with Cyclophilin A
Sequence of KRAS G12V (P01116 1-169 isoform P01116-2 G12V limits assumed): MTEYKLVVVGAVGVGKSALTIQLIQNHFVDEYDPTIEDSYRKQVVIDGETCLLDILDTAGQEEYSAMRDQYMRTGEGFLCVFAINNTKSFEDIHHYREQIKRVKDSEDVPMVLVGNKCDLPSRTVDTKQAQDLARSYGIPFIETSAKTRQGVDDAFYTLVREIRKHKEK
Sequence of KRAS G12V (P62937 whole entry): as the sequence (P62937 whole entry) above
How it was run: as §2

[7] = biological target: KRAS G13C (Homo sapiens, UniProt P01116+P62937, G13C); test: Ras-Raf disruption / FRET / MOA assay (BRAF RBD); format: biochemical; conditions: KRAS G13C FRET data IC50, Ras-Raf disruption, with Cyclophilin A
Sequence of KRAS G13C (P01116 1-169 isoform P01116-2 G13C limits assumed): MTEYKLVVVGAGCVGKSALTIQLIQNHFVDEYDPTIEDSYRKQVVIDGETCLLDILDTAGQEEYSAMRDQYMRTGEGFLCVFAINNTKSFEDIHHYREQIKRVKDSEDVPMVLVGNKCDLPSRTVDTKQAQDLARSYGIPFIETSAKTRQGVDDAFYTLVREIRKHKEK
Sequence of KRAS G13C (P62937 whole entry): as the sequence (P62937 whole entry) above
How it was run: as §2

[8] = biological target: KRAS G13D (Homo sapiens, UniProt P01116+P62937, G13D); test: Ras-Raf disruption / FRET / MOA assay (BRAF RBD); format: biochemical; conditions: KRAS G13D FRET data IC50, Ras-Raf disruption, with Cyclophilin A
Sequence of KRAS G13D (P01116 1-169 isoform P01116-2 G13D limits assumed): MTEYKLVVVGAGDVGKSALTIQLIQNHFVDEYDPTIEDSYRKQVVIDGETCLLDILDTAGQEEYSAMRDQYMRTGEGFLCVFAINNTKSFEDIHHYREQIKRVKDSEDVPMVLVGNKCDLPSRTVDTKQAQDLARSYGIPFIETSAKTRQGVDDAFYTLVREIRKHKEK
Sequence of KRAS G13D (P62937 whole entry): as the sequence (P62937 whole entry) above
How it was run: as §2

[9] = biological target: KRAS Q61H (Homo sapiens, UniProt P01116+P62937, Q61H); test: Ras-Raf disruption / FRET / MOA assay (BRAF RBD); format: biochemical
Sequence of KRAS Q61H (P01116 1-169 isoform P01116-2 Q61H limits assumed): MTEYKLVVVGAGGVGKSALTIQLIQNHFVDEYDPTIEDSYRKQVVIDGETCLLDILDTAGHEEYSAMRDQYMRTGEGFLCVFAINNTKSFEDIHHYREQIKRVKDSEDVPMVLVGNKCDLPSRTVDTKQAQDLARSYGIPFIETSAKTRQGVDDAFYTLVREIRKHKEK
Sequence of KRAS Q61H (P62937 whole entry): as the sequence (P62937 whole entry) above
How it was run: as §2

[10] = biological target: KRAS WT (Homo sapiens, UniProt P01116+P62937); test: Ras-Raf disruption / FRET / MOA assay (BRAF RBD); format: biochemical; conditions: KRAS WT FRET data IC50, Ras-Raf disruption, with Cyclophilin A
Sequence of KRAS WT (P01116 1-169 isoform P01116-2 limits assumed): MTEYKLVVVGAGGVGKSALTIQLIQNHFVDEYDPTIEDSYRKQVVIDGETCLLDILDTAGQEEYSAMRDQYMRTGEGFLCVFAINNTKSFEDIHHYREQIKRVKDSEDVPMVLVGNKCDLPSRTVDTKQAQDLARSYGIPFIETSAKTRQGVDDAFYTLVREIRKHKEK
Sequence of KRAS WT (P62937 whole entry): as the sequence (P62937 whole entry) above
How it was run: as §2

[11] = biological target: NRAS G12C (Homo sapiens, UniProt P01111+P62937, G12C); test: Ras-Raf disruption / FRET / MOA assay (BRAF RBD); format: biochemical; conditions: NRAS G12C FRET data IC50, NRAS G12C
Sequence of NRAS G12C (P01111 whole entry G12C): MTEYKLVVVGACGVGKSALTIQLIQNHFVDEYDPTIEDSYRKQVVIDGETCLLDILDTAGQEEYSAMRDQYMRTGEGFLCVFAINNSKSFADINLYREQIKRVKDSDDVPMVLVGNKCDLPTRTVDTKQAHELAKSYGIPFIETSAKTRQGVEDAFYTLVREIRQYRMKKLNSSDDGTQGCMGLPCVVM
Sequence of NRAS G12C (P62937 whole entry): as the sequence (P62937 whole entry) above
How it was run: as §2

[12] = biological target: NRAS Q61K (Homo sapiens, UniProt P01111+P62937, Q61K); test: Ras-Raf disruption / FRET / MOA assay (BRAF RBD); format: biochemical
Sequence of NRAS Q61K (P01111 whole entry Q61K): as the sequence (P01111 whole entry G12C) above, with C12G, Q61K counted along it
Sequence of NRAS Q61K (P62937 whole entry): as the sequence (P62937 whole entry) above
How it was run: as §2

[13] = biological target: NRAS Q61R (Homo sapiens, UniProt P01111+P62937, Q61R); test: Ras-Raf disruption / FRET / MOA assay (BRAF RBD); format: biochemical
Sequence of NRAS Q61R (P01111 whole entry Q61R): as the sequence (P01111 whole entry G12C) above, with C12G, Q61R counted along it
Sequence of NRAS Q61R (P62937 whole entry): as the sequence (P62937 whole entry) above
How it was run: as §2

[14] = biological target: NRAS WT (Homo sapiens, UniProt P01111+P62937); test: Ras-Raf disruption / FRET / MOA assay (BRAF RBD); format: biochemical
Sequence of NRAS WT (P01111 whole entry): as the sequence (P01111 whole entry G12C) above, with C12G counted along it
Sequence of NRAS WT (P62937 whole entry): as the sequence (P62937 whole entry) above
How it was run: as §2

[15] = biological target: KRAS G12C (Homo sapiens, UniProt P01116+P62937, G12C); test: Ras-Raf disruption / FRET / MOA assay (BRAF RBD); format: biochemical; conditions: KRAS G12C FRET data IC50, Ras-Raf disruption, with Cyclophilin A
Sequence of KRAS G12C (P01116 1-169 isoform P01116-2 G12C limits assumed): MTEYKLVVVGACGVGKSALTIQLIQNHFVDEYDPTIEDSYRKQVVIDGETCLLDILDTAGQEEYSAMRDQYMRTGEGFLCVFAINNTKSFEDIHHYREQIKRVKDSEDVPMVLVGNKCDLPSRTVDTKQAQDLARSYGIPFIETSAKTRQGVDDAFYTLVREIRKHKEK
Sequence of KRAS G12C (P62937 whole entry): as the sequence (P62937 whole entry) above
How it was run: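 His6-K-Ras G12C-GMPPNP (12.5 nM), GST-BRAF RBD (50 nM) and tagless Cyclophilin A (25 μM) incubated 3 h at 25 °C with compound (10-point 3-fold series from 30 μM), pH 7.3 HEPES buffer. Anti-His Eu/anti-GST APC added for 1.5 h; decreased TR-FRET ratio vs DMSO gives IC50.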

Compound	EC50 [1] [nM]	IC50 [2] [nM]	IC50 [3] [nM]	IC50 [4] [nM]	IC50 [5] [nM]	IC50 [6] [nM]	IC50 [7] [nM]	IC50 [8] [nM]	IC50 [9] [nM]	IC50 [10] [nM]	IC50 [11] [nM]	IC50 [12] [nM]	IC50 [13] [nM]	IC50 [14] [nM]	IC50 [15] [nM]
CCn1c(-c2cccnc2[C@H](C)OC)c2c3cc(ccc31)-c1cc(O)cc(c1)C[C@H](NC(=O)[C@H](C(C)C)N(C)C(=O)CN(C)C(=O)[C@@H]1N[C@@H]1C(C)C)C(=O)N1CCC[C@H](N1)C(=O)OCC(C)(C)C2 [Example 264]	< 5000	100 to 1000	10 to 100	10 to 100	< 10	10 to 100	10 to 100	10 to 100	< 10	< 10	< 10	10 to 100	10 to 100	< 10	< 10
CCn1c(-c2cccnc2[C@H](C)OC)c2c3cc(ccc31)-c1cc(O)cc(c1)C[C@H](NC(=O)[C@H](C(C)C)N(C)C(=O)CNC(=O)[C@@H]1N[C@@H]1C1CC1)C(=O)N1CCC[C@H](N1)C(=O)OCC(C)(C)C2 [Example 141]	< 5000	100 to 1000	100 to 1000	10 to 100	10 to 100	10 to 100	10 to 100	100 to 1000	10 to 100	10 to 100	10 to 100	100 to 1000	100 to 1000	10 to 100	10 to 100
CCn1c(-c2cccnc2[C@H](C)OC)c2c3cc(ccc31)-c1cc(O)cc(c1)C[C@H](NC(=O)[C@H](C(C)C)N(C)C(=O)CN(C)C(=O)[C@@H]1CN1CC1(C)COC1)C(=O)N1CCC[C@H](N1)C(=O)OCC(C)(C)C2 (stereo partly drawn) [Example 280]	< 5000	1000 to 10000	< 10	10 to 100	10 to 100	10 to 100	10 to 100	100 to 1000	10 to 100	10 to 100	< 10	100 to 1000	100 to 1000	10 to 100	< 10
CCn1c(-c2cccnc2[C@H](C)OC)c2c3cc(ccc31)-c1cc(O)cc(c1)C[C@H](NC(=O)[C@H](C(C)C)N(C)C(=O)CN(C)C(=O)[C@H]1N[C@H]1C(C)C)C(=O)N1CCC[C@H](N1)C(=O)OCC(C)(C)C2 [Example 265]	< 5000	100 to 1000	10 to 100	10 to 100	10 to 100	10 to 100	10 to 100	10 to 100	10 to 100	10 to 100	10 to 100	100 to 1000	100 to 1000	10 to 100	10 to 100
CCn1c(-c2cccnc2[C@H](C)OC)c2c3cc(ccc31)-c1cc(O)cc(c1)C[C@H](NC(=O)[C@H](C(C)C)N(C)C(=O)CN(C)C(=O)[C@H]1N[C@@H]1C(F)(F)F)C(=O)N1CCC[C@H](N1)C(=O)OCC(C)(C)C2 [Example 261]	< 5000	100 to 1000	< 10	10 to 100	10 to 100	10 to 100	10 to 100	10 to 100	10 to 100	10 to 100	10 to 100	100 to 1000	100 to 1000	10 to 100	10 to 100
CC[C@@H]1N[C@@H]1C(=O)N(C)CC(=O)N(C)[C@H](C(=O)N[C@H]1Cc2cc(O)cc(c2)-c2ccc3c(c2)c(c(-c2cccnc2[C@H](C)OC)n3CC)CC(C)(C)COC(=O)[C@@H]2CCCN(N2)C1=O)C(C)C [Example 263]	< 5000	100 to 1000	10 to 100	10 to 100	10 to 100	10 to 100	10 to 100	10 to 100	10 to 100	10 to 100	< 10	100 to 1000	100 to 1000	10 to 100	< 10
CCn1c(-c2cccnc2[C@H](C)OC)c2c3cc(ccc31)-c1cc(O)cc(c1)C[C@H](NC(=O)[C@H](C(C)C)N(C)C(=O)CN(C)C(=O)[C@H]1CN1CC1COC1)C(=O)N1CCC[C@H](N1)C(=O)OCC(C)(C)C2 (stereo partly drawn) [Example 277]	< 5000	100 to 1000	10 to 100	100 to 1000	10 to 100	100 to 1000	10 to 100	100 to 1000	10 to 100	100 to 1000	10 to 100	100 to 1000	1000 to 10000	100 to 1000	10 to 100
CCn1c(-c2cccnc2[C@H](C)OC)c2c3cc(ccc31)-c1cc(O)cc(c1)C[C@H](NC(=O)[C@H](C(C)C)N(C)C(=O)CN(C)C(=O)[C@H]1CN1CCCOC(C)=O)C(=O)N1CCC[C@H](N1)C(=O)OCC(C)(C)C2 (stereo partly drawn) [Example 266]	< 5000	100 to 1000	< 10	100 to 1000	10 to 100	100 to 1000	10 to 100	100 to 1000	10 to 100	100 to 1000	< 10	100 to 1000	100 to 1000	100 to 1000	< 10
CCn1c(-c2cccnc2[C@H](C)OC)c2c3cc(ccc31)-c1cc(O)cc(c1)C[C@H](NC(=O)[C@H](C(C)C)N(C)C(=O)CN(C)C(=O)[C@@H]1CN1CCCOC(C)=O)C(=O)N1CCC[C@H](N1)C(=O)OCC(C)(C)C2 (stereo partly drawn) [Example 267]	< 5000	100 to 1000	< 10	10 to 100	10 to 100	10 to 100	10 to 100	100 to 1000	10 to 100	10 to 100	< 10	100 to 1000	100 to 1000	–	< 10
CCn1c(-c2cccnc2[C@H](C)OC)c2c3cc(ccc31)-c1cc(O)cc(c1)C[C@H](NC(=O)[C@H](C(C)C)N(C)C(=O)CN(C)C(=O)C1CN1CCOC)C(=O)N1CCC[C@H](N1)C(=O)OCC(C)(C)C2 (stereo partly drawn) [Example 90]	< 5000	100 to 1000	< 10	100 to 1000	10 to 100	10 to 100	10 to 100	100 to 1000	–	10 to 100	< 10	–	–	–	< 10
CCn1c(-c2cccnc2[C@H](C)OC)c2c3cc(ccc31)-c1cc(O)cc(c1)C[C@H](NC(=O)[C@H](C(C)C)N(C)C(=O)CN(C)C(=O)[C@H]1CN1CCCOC)C(=O)N1CCC[C@H](N1)C(=O)OCC(C)(C)C2 (stereo partly drawn) [Example 201]	< 5000	100 to 1000	< 10	100 to 1000	10 to 100	10 to 100	10 to 100	100 to 1000	–	10 to 100	< 10	–	–	–	< 10
